Reference: ChEMBL document CHEMBL1133894, “Design and synthesis of a highly selective EP4-receptor agonist. Part 2: 5-thia and 9beta-haloPG derivatives with improved stability” (Bioorg Med Chem Lett, 2001)

Experiments:
[1] = target: T1, Prostaglandin E2 receptor EP1 subtype (Mus musculus, UniProt P35375); test: Affinity for mouse Prostanoid EP1 receptor expressed in CHO cells; type: cell-based
T1 sequence (P35375 whole entry): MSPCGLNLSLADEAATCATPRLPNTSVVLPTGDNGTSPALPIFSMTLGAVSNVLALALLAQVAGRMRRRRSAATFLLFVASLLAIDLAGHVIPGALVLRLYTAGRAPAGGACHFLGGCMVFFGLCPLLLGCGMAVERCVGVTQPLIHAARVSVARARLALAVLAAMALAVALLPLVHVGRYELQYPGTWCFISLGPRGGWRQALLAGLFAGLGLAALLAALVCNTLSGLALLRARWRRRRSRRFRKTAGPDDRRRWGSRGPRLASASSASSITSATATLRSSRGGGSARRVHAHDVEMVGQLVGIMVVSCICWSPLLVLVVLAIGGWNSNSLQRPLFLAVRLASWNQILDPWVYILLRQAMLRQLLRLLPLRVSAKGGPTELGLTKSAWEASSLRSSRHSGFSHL

[2] = target: T2, Prostaglandin E2 receptor EP4 subtype (Mus musculus, UniProt P32240); test: Effective concentration for increased intracellular c-AMP production by mouse Prostanoid EP4 receptor; type: functional, cell-based
[3] = target: T2, Prostaglandin E2 receptor EP4 subtype; test: Affinity for mouse Prostanoid EP4 receptor expressed in CHO cells; type: cell-based
[4] = target: Prostaglandin E2 receptor EP2 subtype (Mus musculus, UniProt Q62053); test: Affinity for mouse Prostanoid EP2 receptor expressed in CHO cells; type: cell-based
[5] = target: Prostacyclin receptor (Homo sapiens, UniProt P43119); test: Affinity for human Prostanoid IP receptor expressed in CHO cells; type: cell-based
[6] = target: T3, Prostaglandin E2 receptor EP3 subtype (Mus musculus, UniProt P30557); test: Affinity for mouse Prostanoid EP3 receptor expressed in CHO cells; type: cell-based
T3 sequence (P30557 whole entry): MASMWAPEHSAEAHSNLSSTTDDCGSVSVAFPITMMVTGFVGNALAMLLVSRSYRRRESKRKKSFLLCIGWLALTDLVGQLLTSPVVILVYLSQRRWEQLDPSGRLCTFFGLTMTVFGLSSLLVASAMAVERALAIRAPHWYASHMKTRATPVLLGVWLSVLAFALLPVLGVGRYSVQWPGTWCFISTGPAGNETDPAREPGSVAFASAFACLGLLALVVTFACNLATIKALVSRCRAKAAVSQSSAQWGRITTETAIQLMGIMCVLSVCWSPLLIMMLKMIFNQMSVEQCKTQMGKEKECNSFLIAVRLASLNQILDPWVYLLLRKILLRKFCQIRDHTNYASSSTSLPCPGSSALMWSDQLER

[7] = organism: Rattus norvegicus; test: Stimulation of Uterine motility which mediates the EP3-receptor in rats; type: functional
[8] = test system: Rattus norvegicus; test: Suppression of production of plasma TNF-alpha after intravenous infusion of 10, 30, 100 and 300 ng/kg/min; significant; type: functional, organism-based

Sequence of Prostacyclin receptor (P43119 whole entry): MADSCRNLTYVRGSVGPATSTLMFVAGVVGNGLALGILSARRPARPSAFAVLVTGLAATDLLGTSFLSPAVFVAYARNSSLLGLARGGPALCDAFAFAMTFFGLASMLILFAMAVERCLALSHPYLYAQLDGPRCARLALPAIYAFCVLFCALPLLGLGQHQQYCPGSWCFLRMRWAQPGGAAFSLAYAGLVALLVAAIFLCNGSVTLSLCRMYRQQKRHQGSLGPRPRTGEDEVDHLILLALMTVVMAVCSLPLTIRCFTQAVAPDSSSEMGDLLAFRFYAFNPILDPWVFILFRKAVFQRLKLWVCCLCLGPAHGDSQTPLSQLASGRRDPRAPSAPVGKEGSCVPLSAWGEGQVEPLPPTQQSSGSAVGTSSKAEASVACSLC
Sequence of Prostaglandin E2 receptor EP2 subtype (Q62053 whole entry): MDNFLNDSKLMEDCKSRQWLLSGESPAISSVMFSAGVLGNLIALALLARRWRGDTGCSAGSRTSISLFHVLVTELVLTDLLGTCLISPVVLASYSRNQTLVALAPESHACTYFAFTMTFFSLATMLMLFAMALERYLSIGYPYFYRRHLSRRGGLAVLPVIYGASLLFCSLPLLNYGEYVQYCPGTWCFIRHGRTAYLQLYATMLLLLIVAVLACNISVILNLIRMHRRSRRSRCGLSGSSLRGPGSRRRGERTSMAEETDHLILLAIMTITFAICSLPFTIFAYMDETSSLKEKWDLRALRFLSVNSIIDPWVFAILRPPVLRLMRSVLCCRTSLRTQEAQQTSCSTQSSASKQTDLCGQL
T2 sequence (P32240 whole entry): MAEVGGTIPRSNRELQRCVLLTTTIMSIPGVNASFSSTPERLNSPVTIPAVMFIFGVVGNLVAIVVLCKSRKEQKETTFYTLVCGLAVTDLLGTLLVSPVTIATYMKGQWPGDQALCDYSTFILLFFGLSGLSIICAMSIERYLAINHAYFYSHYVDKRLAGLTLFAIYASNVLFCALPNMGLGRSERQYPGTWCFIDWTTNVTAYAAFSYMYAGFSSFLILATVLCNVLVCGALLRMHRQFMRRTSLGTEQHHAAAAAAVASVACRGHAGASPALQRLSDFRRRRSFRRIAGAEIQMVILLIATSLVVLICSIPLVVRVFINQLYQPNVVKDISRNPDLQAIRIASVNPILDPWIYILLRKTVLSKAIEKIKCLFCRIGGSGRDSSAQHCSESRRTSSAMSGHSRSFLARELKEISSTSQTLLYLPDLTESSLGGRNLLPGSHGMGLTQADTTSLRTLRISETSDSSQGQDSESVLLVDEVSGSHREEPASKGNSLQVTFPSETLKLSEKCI

Row | SMILES | Ki [1] | EC50 [2] | Ki [3] | Ki [4] | Ki [5] | Ki [6] | ED50 [7] | Supression [8]
1 | CCCCC[C@H](O)/C=C/[C@H]1[C@H](O)CC(=O)[C@@H]1CSCCCCC(=O)O | 0.095 µM | 1 µM | 0.0087 µM | 0.091 µM | 1.4 µM | 0.002 µM |  | 
2 | CCCCC[C@H](O)/C=C/[C@H]1[C@H](O)CC(=O)[C@@H]1CCCCCCC(=O)O [ALPROSTADIL] | 0.006 µM | 0.0036 µM | 0.0031 µM | 0.022 µM | > 10 µM |  |  | 
3 | Cc1cc(C[C@H](O)/C=C/[C@H]2[C@H](O)CC(=O)[C@@H]2CCSCCCC(=O)O)ccc1O |  | 0.02 µM | 0.0049 µM | 7.4 µM | > 10 µM |  |  | 
4 | CCCCC[C@H](O)/C=C/[C@H]1[C@H](O)CC(=O)[C@@H]1CCCCSCC(=O)O | 0.2 µM | 0.046 µM | 0.0021 µM | 0.049 µM | > 10 µM | 0.0012 µM |  | 
5 | COCc1cccc(C[C@H](O)/C=C/[C@H]2[C@H](O)CC(=O)[C@@H]2CCSCCCC(=O)OC)c1 [RIVENPROST] |  |  |  |  |  |  | > 300 mg/kg | significant
6 | CCCCC[C@H](O)/C=C/[C@H]1[C@H](O)CC(=O)[C@@H]1CCSCCCC(=O)O | 0.052 µM | 0.0036 µM | 0.0005 µM | 0.075 µM | 0.75 µM | 0.0019 µM |  | 
7 | COCc1cccc(C[C@H](O)/C=C/[C@@H]2[C@@H](CCCCCCC(=O)O)[C@H](Cl)C[C@H]2O)c1 | 5.4 µM | 0.16 µM | 0.0027 µM | 0.37 µM | > 10 µM | 0.74 µM |  | 
8 | COCc1cccc(C[C@H](O)/C=C/[C@H]2[C@H](O)CC(=O)[C@@H]2CCSCCCC(=O)O)c1 | > 10 µM | 0.0016 µM | 0.0007 µM | 0.62 µM | > 10 µM | 0.056 µM |  | 
9 | COCc1cccc(C[C@H](O)/C=C/[C@@H]2[C@@H](C/C=C/CCCC(=O)O)[C@H](Cl)C[C@H]2O)c1 | 0.98 µM | 0.0033 µM | 0.0005 µM | 0.012 µM | > 10 µM | 0.092 µM |  | 
10 | COCc1cccc(C[C@H](O)/C=C/[C@@H]2[C@@H](CCSCCCC(=O)O)[C@H](F)C[C@H]2O)c1 |  | 0.27 µM | 0.032 µM | 3.1 µM | > 10 µM |  |  | 
11 | COCc1cccc(C[C@H](O)/C=C/[C@@H]2[C@@H](C/C=C/CCCC(=O)O)[C@H](F)C[C@H]2O)c1 | 1.7 µM | 0.014 µM | 0.0034 µM | 0.058 µM | > 10 µM | 0.094 µM |  | 
12 | Cc1cc(C[C@H](O)/C=C/[C@@H]2[C@@H](C/C=C/CCCC(=O)O)[C@H](Cl)C[C@H]2O)ccc1O | 3.1 µM | 0.044 µM | 0.0077 µM | 0.29 µM | > 10 µM | 2.2 µM |  | 
13 | CCCCC[C@H](O)/C=C/[C@H]1[C@H](O)CC(=O)[C@@H]1CCCSCCC(=O)O | 0.027 µM | 1 µM | 0.011 µM | 0.34 µM | 0.92 µM | 0.0037 µM |  | 
